{"source": "patent US20200022967A1", "about": "“Use of 2-carboxamide cycloamino urea derivatives in the treatment of EGFR dependent diseases or diseases that have acquired resistance to agents that target EGFR family members” (Novartis AG, priority 2010, published 2020)", "key": {"BT-474 tumors": {"tested_on": "BT-474 tumors", "experiment": "BT474 orthotopic breast cancer xenograft, antitumor activity (Example 1)", "type": "in vivo, mice", "procedure": "Experiments were performed in female HsdNpa:Athymic Nude-nu mice approximately 8-12 weeks of age at treatment start. All animals were housed under Optimized Hygienic conditions in Makrolon type III cages (max. 10 animals per cage) with free access to food and water.\nBT-474 cells, which are human breast ductal carcinoma cells and ErbB2 amplified with a PIK3CA mutation K111N, were grown in DMEM culture medium containing 4.5 g/l glucose supplemented with 10% heat-inactivated FCS, 2 mM L-glutamine, 1 mM sodium pyruvate and incubated at 37° C. in a 5% CO2 humidified atmosphere. Cell culture reagents were purchased from BioConcept (Allschwil, Switzerland).\nBT-474 tumors were established in vivo by injection 3×10^6 cells in 30 μl HBSS (Sigma # H8264) containing 1 mg/ml Matrigel (BD #34234) orthotopically into the 3rd mammary gland on the right side of the animals. The efficacy experiments started when the tumors reached an average size of approximately 130 mm^3 (day 14-16 post cell injection). The PK/PD experiment was performed when the tumors reached a size of 150-250 m m^3 (day 22 after cell injection). On the day of cell injection, a 0.025 17β Estradiol pellent has been implanted subcutaneously on the left flank into each experimental animal under Forene® inhalation narcosis.\nThe Compound was fully dissolved in NMP. Then, PEG300 and liquified Solutol were added (in sequence with vortexing after addition of each reagent). Water was added immediately prior to administration to the animals. Compound A or vehicle was administered orally at a volume of 10 ml/kg.\nTumor volumes were measured with calipers and determined according to the formula: length×diameter^2×π/6. […] Regressions (%) were calculated according to the formula ((mean tumor volume at end of treatment-mean tumor volume at start of treatment)/mean tumor volume at start of treatment)×100. Body weights and tumor volumes were recorded twice a week.\nWhere applicable, data is presented as mean±SEM. For all tests, the level of significance was set at p<0.05. For tumor volumes, comparisons between treatment groups and vehicle control group were done using one-way ANOVA followed by Dunnett's test. The level of significance of body weight change within a group between the start and the end of the treatment period was determined using a paired t-test. Comparisons of delta body weights between treatment and vehicle control groups were performed by a one-way ANOVA followed by a post hoc Dunnett's test.\nIn the first experiment, Compound A was orally administered daily to BT-474 orthotopic xenografts, tumor-bearing nude mice at a dose of 50 mg/kg. […] Compound A administered orally at 50 mg/kg once daily produces a mean tumor change of tumor volume of −29.7±15.6 mm^3 (p<0.01, ANOVA and post-hoc Dunnett's) as compared to vehicle (mean tumor change of 315.1±16.4 mm^3), with a 23.0% regression in the first experiment.\nIn a second experiment, Compound A was orally administered daily to BT-474 orthotopic xenografts, tumor-bearing nude mice at doses of 12.5, 25 and 50 mg/kg. […] (See FIG. 1). Compound A administered orally at 12.5, 25 and 50 mg/kg once daily produces a mean change of tumor volume of 171.8±33.0 mm^3 (p<0.01, ANOVA and post-hoc Dunnett's), 95.5±26.5 mm^3 (p<0.01, ANOVA and post-hoc Dunnett's), and 20.8±15.9 mm^3 (p<0.01, ANOVA and post-hoc Dunnett's) respectively as compared to vehicle (mean change of tumor volume of 557.7±79.0 mm^3) in the second experiment. (See FIG. 3)"}, "BT474": {"tested_on": "BT474", "experiment": "Cell proliferation in BT474 breast cancer model", "type": "cell-based, human"}}, "data": [{"compound": "Cc1nc(NC(=O)N2CCC[C@H]2C(N)=O)sc1-c1ccnc(C(C)(C)C(F)(F)F)c1", "note": "[Compound A, (S)-Pyrrolidine-1,2-dicarboxylic acid 2-amide 1-({4-methyl-5-[2-(2,2,2-trifluoro-1,1-dimethyl-ethyl)-pyridin-4-yl]-thiazol-2-yl}-amide)]", "values": [{"measurement": "antitumor effect as compared to vehicle", "setting": "BT-474 tumors; 12.5, 25 and 50 mg/kg p.o. once daily, p<0.05 ANOVA", "result": "statistically significant antitumor effect"}, {"measurement": "regression", "setting": "BT-474 tumors; first experiment, 50 mg/kg p.o. once daily", "result": 23.0, "unit": "%"}, {"measurement": "mean change of tumor volume", "setting": "BT-474 tumors; first experiment, 50 mg/kg p.o. once daily, vehicle 315.1±16.4", "result": "−29.7±15.6", "unit": "mm^3"}, {"measurement": "mean change of tumor volume", "setting": "BT-474 tumors; second experiment, 12.5 mg/kg p.o. once daily, vehicle 557.7±79.0", "result": "171.8±33.0", "unit": "mm^3"}, {"measurement": "mean change of tumor volume", "setting": "BT-474 tumors; second experiment, 25 mg/kg p.o. once daily, vehicle 557.7±79.0", "result": "95.5±26.5", "unit": "mm^3"}, {"measurement": "mean change of tumor volume", "setting": "BT-474 tumors; second experiment, 50 mg/kg p.o. once daily, vehicle 557.7±79.0", "result": "20.8±15.9", "unit": "mm^3"}, {"measurement": "cell death", "setting": "BT474; BT474, overexpressed ErbB2", "result": "induces cell death"}, {"measurement": "GI50", "setting": "BT474; BT474 breast cancer model, ErbB2 amplified, read-out: median GI50", "result": "139 ± 82", "unit": "nM"}]}]}
